For one compound, EC50 and IC50 results are on record in BindingDB's records for doi:10.1021/acs.jmedchem.9b02101 (Kyorin Pharmaceutical, 2020).

A value given as a limit tells only on which side of the number the result lay.

Assay [1] can be described thus: Agonist activity at FPR2 in mouse peritoneal macrophages assessed as stimulation of phagocytosis preincubated for 15 mins followed by FITC labeled zymosan addition and measured after 45 mins by Trypan blue staining based fluorescence assay.
Assay [2] can be described thus: Agonist activity at FPR2 in human HL-60 cells assessed as reduction in chemoattractant induced chemotaxis by luminescence cell viability assay.

What is called EC50 is the concentration giving half of the maximal effect. As a reminder, the IC50 is the midpoint of a concentration-inhibition curve. For `COc1cc(F)c([C@@H]2CNC(=O)[C@H]2NC(=O)Nc2ccccc2)c(F)c1`, in assay [1], the EC50 is less than 1 nM. The IC50 in assay [2] turned out to be 57 nM.
